Measurements taken from ChEMBL document CHEMBL6127099, “Stimuli-responsive prodrugs with self-immolative linker for improved cancer therapy” (Eur J Med Chem, 2024).

Target: NAD(P)H dehydrogenase [quinone] 1 (Homo sapiens, UniProt P15559)
Assay: Prodrug activation assessed as NQO1 (unknown origin)-mediated RSSH release by measuring rate constant

NAD(P)H dehydrogenase [quinone] 1, sequence (P15559 whole entry): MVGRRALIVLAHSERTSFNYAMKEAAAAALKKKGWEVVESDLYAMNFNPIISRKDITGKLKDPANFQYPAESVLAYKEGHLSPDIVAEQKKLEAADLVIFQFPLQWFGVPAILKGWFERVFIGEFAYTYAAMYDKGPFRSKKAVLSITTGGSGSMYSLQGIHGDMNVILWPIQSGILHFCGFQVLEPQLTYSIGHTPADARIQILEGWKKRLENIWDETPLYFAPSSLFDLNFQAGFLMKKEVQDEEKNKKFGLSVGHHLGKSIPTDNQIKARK

SMILES | K [min⁻¹]
CN1CCN(C)C1=O | 0.212
Cc1c(C)c2c(c(C)c1O)C(C)(C)CC(=O)O2 | 0.32
COC(=O)[C@H](NC(C)=O)C(C)(C)SSCc1ccc(N(C)C(=O)CC(C)(C)C2=C(C)C(=O)C(C)=C(C)C2=O)cc1 | 0.162
COC(=O)[C@H](NC(C)=O)C(C)(C)SSC(=O)N(C)CCN(C)C(=O)CC(C)(C)C1=C(C)C(=O)C(C)=C(C)C1=O | 0.17
